Data: patent publication US6737383B1, “Herbicidal oxadiazolidines” (priority 1999, dated 2004)

Tests used:
guineagrass = assay: Test D guineagrass; type: in vivo, Panicum maximum; settings: Preemergence, 0 to 100 scale
Description: (§1) Seeds, tubers, or plant parts of Alexandergrass (Brachiaria plantaginea), bermuda-grass (Cynodon dactylon), common pursiane (Portulaca oleracea), common ragweed (Ambrosia elatior), common groundsel (Senecio vulgaris), dallisgrass (Paspalum dilatatum), goosegrass (Eleusine indica), guineagrass (Panicum maximum), itchgrass (Rottboellia exaltata), Johnson grass (Sorghum halepense), large crabgrass (Digitaria sanguinalis), pitted morningglory (Ipomoea lacunosa), purple nutsedge (Cyperus rotundus), sandbur (Cenchrus echinatus), sourgrass (Trichachne insularis), Spanishneedles (Bidens bipinnata), surinam grass (Brachiaria decumbens) and tall mallow (Malva sylvestris) were planted into greenhouse pots of flats containing greenhouse planting medium. Plant species were grown in separate pots or individual compartments. Preemergence applications were made within one day of planting the seed or plant part.
(§2) Test chemicals were formulated in a non-phytotoxic solvent mixture which included a surfactant and applied preemergence to the surface of the pot containing seeds in a sandy loam soil. Untreated control pots and treated pots were placed in the greenhouse for growth and visually evaluated for injury 14 to 21 days after herbicide application. Plant response ratings, summarized in Table C, are based on a 0 to 100 scale where 0 is no injury and 100 is complete control. A dash (−) response means no test result.

Johnson grass = assay: Test D Johnson grass; type: in vivo, Sorghum halepense; settings: Preemergence, 0 to 100 scale
Description: as §1, §2

common pursiane = assay: Test D common purslane; type: in vivo, Portulaca oleracea
Description: as §1, §2

large crabgrass = assay: Test D large crabgrass; type: in vivo, Digitaria sanguinalis; settings: Preemergence, 0 to 100 scale
Description: as §1, §2

tall mallow = assay: Test D tall mallow; type: in vivo, Malva sylvestris; settings: Preemergence, 0 to 100 scale
Description: as §1, §2

itchgrass = assay: Test D itchgrass; type: in vivo, Rottboellia exaltata; settings: Preemergence, 0 to 100 scale
Procedure, shortened: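 Scoring used a 0–100 visual injury scale, with 0 meaning no effect and 100 complete control, assessed 14–21 days after application alongside untreated pots. Preemergence treatments went onto sandy loam surfaces of separately potted seeds within a day of sowing.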

Alexandergrass = assay: Test D Alexandergrass; type: in vivo, Brachiaria plantaginea; settings: Preemergence, 0 to 100 scale
Description: as §1, §2

Spanishneedles = assay: Test D Spanishneedles; type: in vivo, Bidens bipinnata; settings: Preemergence, 0 to 100 scale
Procedure, shortened: (§3)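 Visual injury ratings, 0 = no injury to 100 = complete control, taken 14 to 21 days after treatment. Test chemicals were in a surfactant-containing non-phytotoxic solvent; preemergence treatments went onto the sandy loam surface of seeded greenhouse pots within one day of sowing.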

sandbur = assay: Test D sandbur; type: in vivo, Cenchrus echinatus; settings: Preemergence, 0 to 100 scale
Procedure, shortened: as §3

Green foxtail = assay: Test D green foxtail; type: in vivo
Description: as §1, §2

common ragweed = assay: Test D common ragweed; type: in vivo, Ambrosia elatior; settings: Preemergence, 0 to 100 scale
Procedure, shortened: as §3

dallisgrass = assay: Test D dallisgrass; type: in vivo, Paspalum dilatatum; settings: Preemergence, 0 to 100 scale
Procedure, shortened: as §3

redroot pigweed = assay: Test C postemergence redroot pigweed; type: in vivo, Amaranthus retroflexus; settings: 0 to 100 scale, 0 no effect, 100 complete control
Procedure, shortened: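 Activity is expressed as percent-style visual control, 0 (no effect) to 100 (complete control), assessed approximately 14 to 21 days after application, relative to untreated plants. Application was postemergence, using a non-phytotoxic solvent formulation with surfactant.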

velvetleaf = assay: Test A velvetleaf; type: in vivo, Abutilon theophrasti; settings: 0 to 10 scale where 0 is no effect and 10 is complete control
Procedure, shortened: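 Visual injury score, 0 (no effect) to 10 (complete control), vs untreated controls at ~11 d in greenhouse. Pre: soil drench on sandy loam. Post: spray to runoff, 1–2 leaf stage.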

[1] = Rate 500 g/ha, Preemergence; 0 to 100 scale
[2] = Rate 500 g/ha; Preemergence; 0 to 100 scale
[3] = Rate 16 g/ha, 0 no injury, 100 complete control
[4] = Rate 32 g/ha, 0 no injury, 100 complete control
[5] = Rate 64 g/ha, 0 no injury, 100 complete control
[6] = Rate 125 g/ha, 0 no injury, 100 complete control
[7] = Rate 16 g/ha; Preemergence; 0 to 100 scale, 0 no injury, 100 complete control
[8] = Rate 32 g/ha; Preemergence; 0 to 100 scale, 0 no injury, 100 complete control
[9] = Rate 64 g/ha, Preemergence; 0 to 100 scale, 0 no injury, 100 complete control
[10] = Rate 125 g/ha, Preemergence; 0 to 100 scale, 0 no injury, 100 complete control
[11] = Rate 250 g/ha; Preemergence; 0 to 100 scale

## Cc1ccccc1-n1c(=O)on(C(=O)N(c2ccccc2)C(C)C)c1=O [Compound 36]
guineagrass; Rate 500 g/ha
  Plant response rating, Guineagrass: 100
Johnson grass; Rate 500 g/ha
  Plant response rating Johnsongrass: 0
Common pursiane; [1]
  Plant response rating, C. purslane: 10
Common pursiane; [2]
  Plant response rating, C. purslane: 0
Large crabgrass; Rate 500 g/ha
  Plant response rating Large crabgrass: 100
Tall mallow; Rate 500 g/ha
  Plant response rating, Tall Mallow: 0
itchgrass; Rate 500 g/ha
  Plant response rating, Itchgrass: 80
Alexandergrass; Rate 500 g/ha
  Plant response rating, Alexandergrass: 98
Spanishneedles; Rate 500 g/ha
  Plant response rating, Spanishneedles: 10
sandbur; Rate 500 g/ha
  Plant response rating, Sandbur: 100
Green foxtail; [1]
  Plant response rating, Green foxtail: 100
Common ragweed; Rate 500 g/ha
  Plant response rating, C. ragweed: 10
dallisgrass; Rate 500 g/ha
  Plant response rating, Dallisgrass: 100

## CC(C)N(C(=O)n1oc(=O)n(C(C)C)c1=O)c1ccc(F)cc1F [Compound 109]
guineagrass; [3]
  Plant response rating, Guineagrass: 90
guineagrass; [4]
  Plant response rating, Guineagrass: 100
guineagrass; [5]
  Plant response rating, Guineagrass: 100
guineagrass; [6]
  Plant response rating, Guineagrass: 100
guineagrass; Rate 250 g/ha
  Plant response rating, Guineagrass: 100
guineagrass; Rate 500 g/ha
  Plant response rating, Guineagrass: 100
Johnson grass; [3]
  Plant response rating Johnsongrass: 0
Johnson grass; [4]
  Plant response rating Johnsongrass: 0
Johnson grass; [5]
  Plant response rating Johnsongrass: 75
Johnson grass; [6]
  Plant response rating Johnsongrass: 98
Johnson grass; Rate 250 g/ha
  Plant response rating Johnsongrass: 100
Johnson grass; Rate 500 g/ha
  Plant response rating Johnsongrass: 100
Common pursiane; [7]
  Plant response rating, C. purslane: 0
Common pursiane; [8]
  Plant response rating, C. purslane: 0
Common pursiane; [9]
  Plant response rating, C. purslane: 0
Common pursiane; [10]
  Plant response rating, C. purslane: 0
Common pursiane; [11]
  Plant response rating, C. purslane: 0
Common pursiane; [1]
  Plant response rating, C. purslane: 55
Common pursiane; [2]
  Plant response rating, C. purslane: 0
Large crabgrass; [3]
  Plant response rating Large crabgrass: 85
Large crabgrass; [4]
  Plant response rating Large crabgrass: 100
Large crabgrass; [5]
  Plant response rating Large crabgrass: 100
Large crabgrass; [6]
  Plant response rating Large crabgrass: 100
Large crabgrass; Rate 250 g/ha
  Plant response rating Large crabgrass: 100
Large crabgrass; Rate 500 g/ha
  Plant response rating Large crabgrass: 100
Tall mallow; [3]
  Plant response rating, Tall Mallow: 0
Tall mallow; [4]
  Plant response rating, Tall Mallow: 20
Tall mallow; [5]
  Tall Mallow plant response rating: 60
Tall mallow; [6]
  Tall Mallow plant response rating: 85
Tall mallow; Rate 250 g/ha
  Plant response rating, Tall Mallow: 98
Tall mallow; Rate 500 g/ha
  Plant response rating, Tall Mallow: 100
itchgrass; [3]
  Plant response rating, Itchgrass: 0
itchgrass; [4]
  Plant response rating, Itchgrass: 65
itchgrass; [5]
  Plant response rating, Itchgrass: 75
itchgrass; [6]
  Plant response rating, Itchgrass: 75
itchgrass; Rate 250 g/ha
  Plant response rating, Itchgrass: 100
itchgrass; Rate 500 g/ha
  Plant response rating, Itchgrass: 100
Alexandergrass; [3]
  Plant response rating, Alexandergrass: 40
Alexandergrass; [4]
  Plant response rating, Alexandergrass: 90
Alexandergrass; [5]
  Plant response rating, Alexandergrass: 98
Alexandergrass; [6]
  Plant response rating, Alexandergrass: 100
Alexandergrass; Rate 250 g/ha
  Plant response rating, Alexandergrass: 100
Alexandergrass; Rate 500 g/ha
  Plant response rating, Alexandergrass: 100
Spanishneedles; [3]
  Plant response rating, Spanishneedles: 0
Spanishneedles; [4]
  Plant response rating, Spanishneedles: 10
Spanishneedles; [5]
  Spanishneedles plant response rating: 10
Spanishneedles; [6]
  Spanishneedles plant response rating: 10
Spanishneedles; Rate 500 g/ha
  Plant response rating, Spanishneedles: 30
sandbur; [3]
  Plant response rating, Sandbur: 0
sandbur; [4]
  Plant response rating, Sandbur: 0
sandbur; [5]
  Sandbur plant response rating: 98
sandbur; [6]
  Sandbur plant response rating: 100
sandbur; Rate 250 g/ha
  Plant response rating, Sandbur: 100
sandbur; Rate 500 g/ha
  Plant response rating, Sandbur: 100
Green foxtail; Preemergence; Rate 16 g/ha; 0 to 100 scale, 0 no injury, 100 complete control
  Plant response rating, Green foxtail: 98
Green foxtail; Preemergence; Rate 32 g/ha; 0 to 100 scale, 0 no injury, 100 complete control
  Plant response rating, Green foxtail: 100
Green foxtail; [7]
  Plant response rating, Green foxtail: 98
Green foxtail; [8]
  Plant response rating, Green foxtail: 0
Green foxtail; [9]
  Green foxtail plant response rating: 100
  Plant response rating, Green foxtail: 100
Green foxtail; [10]
  Green foxtail plant response rating: 100
  Plant response rating, Green foxtail: 100
Green foxtail; [11]
  Plant response rating, Green foxtail: 100
Green foxtail; [1]
  Plant response rating, Green foxtail: 100
Common ragweed; [3]
  Plant response rating, C. ragweed: 0
Common ragweed; [4]
  Plant response rating, C. ragweed: 0
Common ragweed; [5]
  Plant response rating, C. ragweed: 10
Common ragweed; [6]
  Plant response rating, C. ragweed: 10
Common ragweed; Rate 250 g/ha
  Plant response rating, C. ragweed: 10
Common ragweed; Rate 500 g/ha
  Plant response rating, C. ragweed: 55
dallisgrass; [3]
  Plant response rating, Dallisgrass: 40
dallisgrass; [4]
  Plant response rating, Dallisgrass: 98
dallisgrass; [5]
  Plant response rating, Dallisgrass: 100
dallisgrass; [6]
  Plant response rating, Dallisgrass: 100
dallisgrass; Rate 250 g/ha
  Plant response rating, Dallisgrass: 100
dallisgrass; Rate 500 g/ha
  Plant response rating, Dallisgrass: 100
Redroot pigweed; Rate 140 g/ha
  Plant response rating, Redroot pigweed: 0
Redroot pigweed; Rate 280 g/ha
  Plant response rating, Redroot pigweed: 40
Redroot pigweed; Rate 560 g/ha
  Plant response rating, Redroot pigweed: 70
Redroot pigweed; Rate 1120 g/ha
  Plant response rating, Redroot pigweed: 85

## CC(C)N(C(=O)n1oc(=O)n(Cc2ccccc2)c1=O)c1ccccc1 [Compound 94]
guineagrass; [6]
  Plant response rating, Guineagrass: 0
guineagrass; Rate 500 g/ha
  Plant response rating, Guineagrass: 100
Johnson grass; [6]
  Plant response rating Johnsongrass: 0
Johnson grass; Rate 500 g/ha
  Plant response rating Johnsongrass: 20
Common pursiane; [10]
  Plant response rating, C. purslane: 0
Common pursiane; [1]
  Plant response rating, C. purslane: 10
Common pursiane; [2]
  Plant response rating, C. purslane: 0
Large crabgrass; [6]
  Plant response rating Large crabgrass: 98
Large crabgrass; Rate 500 g/ha
  Plant response rating Large crabgrass: 100
Tall mallow; [6]
  Tall Mallow plant response rating: 0
Tall mallow; Rate 500 g/ha
  Plant response rating, Tall Mallow: 20
itchgrass; [6]
  Plant response rating, Itchgrass: 0
itchgrass; Rate 500 g/ha
  Plant response rating, Itchgrass: 40
Alexandergrass; [6]
  Plant response rating, Alexandergrass: 50
Alexandergrass; Rate 500 g/ha
  Plant response rating, Alexandergrass: 80
Spanishneedles; [6]
  Spanishneedles plant response rating: 0
Spanishneedles; Rate 500 g/ha
  Plant response rating, Spanishneedles: 0
sandbur; [6]
  Sandbur plant response rating: 20
sandbur; Rate 500 g/ha
  Plant response rating, Sandbur: 100
Green foxtail; [10]
  Green foxtail plant response rating: 90
  Plant response rating, Green foxtail: 90
Green foxtail; [1]
  Plant response rating, Green foxtail: 100
Common ragweed; [6]
  Plant response rating, C. ragweed: 0
Common ragweed; Rate 500 g/ha
  Plant response rating, C. ragweed: 10
dallisgrass; [6]
  Plant response rating, Dallisgrass: 98
dallisgrass; Rate 500 g/ha
  Plant response rating, Dallisgrass: 100
Redroot pigweed; Rate 560 g/ha
  Plant response rating, Redroot pigweed: 0
Redroot pigweed; Rate 1120 g/ha
  Plant response rating, Redroot pigweed: 0

## CC(C)N(C(=O)n1oc(=O)n(C2CCCC(C(F)(F)F)C2)c1=O)c1ccc(F)cc1 (centres unmarked) [Compound 184]
velvetleaf; Postemergence, Rate 1000 g/ha
  Plant response rating, Velvetleaf: 2
velvetleaf; Pre-emergence, Rate 2000 g/ha
  Plant response rating, Velvetleaf: 0

## CC(C)N(C(=O)n1oc(=O)n(N(C)c2ccccc2)c1=O)c1ccc(F)cc1 [Compound 177]
velvetleaf; Postemergence, Rate 1000 g/ha
  Plant response rating, Velvetleaf: 2
velvetleaf; Pre-emergence, Rate 2000 g/ha
  Plant response rating, Velvetleaf: 1

## CCN(C(=O)n1oc(=O)n(N(C)c2ccccc2)c1=O)C1CCCCC1 [Compound 183]
velvetleaf; Postemergence, Rate 1000 g/ha
  Plant response rating, Velvetleaf: 0
velvetleaf; Pre-emergence, Rate 2000 g/ha
  Plant response rating, Velvetleaf: 0

## Cc1ccccc1-n1c(=O)on(C(=O)N(c2cc(OC(C)C)c(Cl)cc2Cl)C(C)C)c1=O [Compound 42]
velvetleaf; Postemergence, Rate 1000 g/ha
  Plant response rating, Velvetleaf: 0
velvetleaf; Pre-emergence, Rate 2000 g/ha
  Plant response rating, Velvetleaf: 0

## CC(C)N(C(=O)n1oc(=O)n(C)c1=O)c1ccc(Cl)cc1 [Compound 137]
velvetleaf; Postemergence, Rate 1000 g/ha
  Plant response rating, Velvetleaf: 2
velvetleaf; Pre-emergence, Rate 2000 g/ha
  Plant response rating, Velvetleaf: 5
